# Source: patent publication US12692254B2, “Benzimidazole inhibitors of PAD enzymes” (BRISTOL-MYERS SQUIBB COMPANY, priority 2018, dated 2026)
# Target: human PAD4 (hPAD4) (Homo sapiens, UniProt Q9UM07)
# Experiment: RFMS human PAD4 functional assay (rapid-fire mass spectrum)
# Format: biochemical
# Conditions: 5 nM hPAD4 enzyme, 250 μM BAEE, 50 μM Calcium; 30 min preincubation, 90 min reaction at 37° C.
# Procedure: Compounds of the present invention were assayed as inhibitors of PAD4 using the assay protocol described below.
# RFMS tinman PAD4 Functional Assay:
# Compounds were solubilized in 100% DMSO to achieve a 10 mM compound concentration. Compound stock solutions were stored at RT. A series of dilutions were prepared in DMSO and mixed 8 times with 20 μl, mixing volume. Final top concentration of compound in the assay is 50 μM. […] 1-90 min enzyme/substrate reaction, 30 min reaction with phenyl glyoxal at 37° C. • Stop solution: 40 μl 5% TCA in ACN
# 0.13 μL of compound solution was added to 13 μL of 10 nM PAD4 in assay buffer. After 30 min 13 μl of 500 μM of BAEE was added in 25 mM hepes, pH 7.5, 5 mM NaCl, 1 mM DTT, 0.2 mg/ml BS A, 0.01% CHAPS, 50 μM Calcium, 5 μM TPEN was added and the reaction incubated for 90 min at 37° C. The enzymatic reaction was quenched by addition of 15 μl of 6.1N TCA, 100% Final Concentration is 20%, 35 μl of 8.5 mM phenyl glyoxal (final concentration 4 mM) is then added and the reaction is incubated for 30 min at 37° C.
# After 30 minutes the plates are spun down to remove all precipitate. The enzyme reaction was quenched with an equal volume of methanol containing internal standard (modified citrulline). Samples were loaded onto the Rapid Fire RF300 system (Agilent) wherein they were first sipped for 1000 ms and then directly loaded to a C18 separations cartridge using a mixture of acetonitrile containing 0.01% formic acid for 3000 ms desalting. The flow rate of the mobile phase was 1.5 ml/min.
# The dwell time for each transition was set at 200 ms, and the ESI voltage was used at 5500 with a source temperature of 400° C. Extracted ion peaks for each transition were integrated using the Rapid Fire Integrator software. Peak area of analyte was normalized with internal standard).
# Sequence of human PAD4 (hPAD4) (Q9UM07 whole entry): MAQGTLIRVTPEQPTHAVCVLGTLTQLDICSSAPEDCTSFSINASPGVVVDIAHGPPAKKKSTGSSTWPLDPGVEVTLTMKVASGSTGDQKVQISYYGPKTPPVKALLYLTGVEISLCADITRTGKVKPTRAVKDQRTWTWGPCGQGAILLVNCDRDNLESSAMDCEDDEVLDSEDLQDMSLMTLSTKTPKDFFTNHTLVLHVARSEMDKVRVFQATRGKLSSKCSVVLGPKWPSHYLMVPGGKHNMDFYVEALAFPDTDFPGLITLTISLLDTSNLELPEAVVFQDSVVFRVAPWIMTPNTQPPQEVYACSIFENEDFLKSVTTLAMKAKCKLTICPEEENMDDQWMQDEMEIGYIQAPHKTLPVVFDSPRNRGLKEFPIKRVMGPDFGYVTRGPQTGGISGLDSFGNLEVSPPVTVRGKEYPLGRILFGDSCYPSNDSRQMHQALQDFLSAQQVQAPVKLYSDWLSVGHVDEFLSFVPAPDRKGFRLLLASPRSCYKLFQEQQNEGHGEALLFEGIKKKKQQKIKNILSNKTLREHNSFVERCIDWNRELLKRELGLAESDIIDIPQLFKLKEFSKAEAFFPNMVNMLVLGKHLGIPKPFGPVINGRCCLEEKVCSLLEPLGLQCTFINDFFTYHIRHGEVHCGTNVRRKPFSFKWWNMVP
row,Structure (SMILES),IC50
1,"COc1cc(C(=O)N2C[C@H]3CC[C@@H]2[C@@H]3N)cc2nc(-c3cc4cccnc4n3CC3CC3)n(C3CN(C(=O)c4ccnc(C)n4)C3)c12 [Example 97, (1R,4R,7R)-2-{2-[1-(cyclopropylmethyl)-1H-pyrrolo[2,3-b]pyridin-2-yl]-7-methoxy-1-[1-(2-methylpyrimidine-4-carbonyl)azetidin-3-yl]-1H-1,3-benzodiazole-5-carbonyl}-2-azabicyclo[2.2.1]heptan-7-amine]",63 nM
2,"COc1cc(C(=O)N2C[C@H]3CC[C@@H]2[C@@H]3N)cc2nc(-c3cc4cccnc4n3CC3CC3)n(CC3CN(S(C)(=O)=O)C3)c12 [Example 338, (1R,4R,7R)-2-{2-[1-(cyclopropylmethyl)-1H-pyrrolo[2,3-b]pyridin-2-yl]-1-[(1-methanesulfonylazetidin-3-yl)methyl]-7-methoxy-1H-1,3-benzodiazole-5-carbonyl}-2-azabicyclo[2.2.1]heptan-7-amine]",498 nM
3,"COc1cc(C(=O)N2C[C@H]3CC[C@@H]2[C@@H]3N)cc2nc(-c3cc4cccnc4n3CC3CC3)n(C[C@@H]3CCN(c4cncc(C#N)c4)C3)c12 [Example 211, 5-[(3R)-3-({5-[(1R,4R,7R)-7-amino-2-azabicyclo[2.2.1]heptane-2-carbonyl]-2-[1-(cyclopropylmethyl)-1H-pyrrolo[2,3-b]pyridin-2-yl]-7-methoxy-1H-1,3-benzodiazol-1-yl}methyl)pyrrolidin-1-yl]pyridine-3-carbonitrile]",80 nM
4,"COc1cc(C(=O)N2C[C@H](N)C[C@@H](F)C2)cc2nc(-c3cc4ccccc4n3CC3CC3)n(CC3CCC(=O)N3)c12 (stereo partly drawn) [Example 283, 5-({5-[(3R,5R)-3-amino-5-fluoropiperidine-1-carbonyl]-2-[1-(cyclopropylmethyl)-1H-indol-2-yl]-7-methoxy-1H-1,3-benzodiazol-1-yl}methyl)pyrrolidin-2-one]",895 nM
5,"N[C@@H]1C2CCC1N(C(=O)c1ccc3c(c1)nc(-c1cc4ccccc4n1CC1CC1)n3CC1CN(C(=O)c3ccccc3)C1)C2 (stereo partly drawn) [Example 170, (1R,4R,7R)-2-{1-[(1-benozylazetidin-3-yl)methyl]-2-[1-(cyclopropylmethyl)-1H-indol-2-yl]-1H-1,3-benzodiazol-5-carbonyl}-2-azabicyclo[2.2.1]heptan-7-amine]",35 nM
6,"COc1cc(C(=O)N2C[C@H](N)C[C@@H](F)C2)cc2nc(-c3cc4ccccc4n3CC3CC3)n(CC3CC(=O)N(C)C3)c12 (mixture of isomers) [Example 281, 4-({5-[(3R,5R)-3-amino-5-fluoropiperidine-1-carbonyl]-2-[1-(cyclopropylmethyl)-1H-indol-2-yl]-7-methoxy-1H-1,3-benzodiazol-1-yl}methyl)-1-methylpyrrolidin-2-one]",649 nM
7,"COc1cc(C(=O)N2C[C@H]3CC[C@@H]2[C@@H]3N)cc2nc(-c3cc4ccccc4n3C)n(CC3CNC3)c12 [Example 308, (1R,4R,7R)-2-{1-[(azetidin-3-yl)methyl]-7-methoxy-2-(1-methyl-1H-indol-2-yl)-1H-1,3-benzodiazole-5-carbonyl}-2-azabicyclo[2.2.1]heptan-7-amine]",538 nM
8,"COc1cc(C(=O)N2CC3CCC2[C@@H]3N)cc2nc(-c3cc4cccnc4n3CC3CC3)n(Cc3cnn(-c4ccc(Cl)cn4)c3)c12 (stereo partly drawn) [Example 360, (7R)-2-(1-{[1-(5-chloropyridin-2-yl)-1H-pyrazol-4-yl]methyl}-2-[1-(cyclopropylmethyl)-1H-pyrrolo[2,3-b]pyridin-2-yl]-7-methoxy-1H-1,3-benzodiazole-5-carbonyl)-2-azabicyclo[2.2.1]heptan-7-amine]",24 nM
9,"Cc1cc(C(=O)N2CC3CCC2[C@@H]3N)cc2nc(-c3cc4cccnc4n3CC3CC3)n(CC3CN(C(=O)c4ccc(C#N)cc4)C3)c12 (stereo partly drawn) [Example 471, 4-[3-({5-[(7R)-7-amino-2-azabicyclo[2.2.1]heptane-2-carbonyl]-2-[1-(cyclopropylmethyl)-1H-pyrrolo[2,3-b]pyridin-2-yl]-7-methyl-1H-1,3-benzodiazol-1-yl}methyl)azetidine-1-carbonyl]benzonitrile]",228 nM
10,"COc1cc(C(=O)N2C[C@H]3CC[C@@H]2[C@@H]3N)cc2nc(-c3cc4cccnc4n3CC3CC3)n(CC3CN(C(=O)c4ccnc(C#N)c4)C3)c12 [Example 183, 4-[3-({5-[(1R,4R,7R)-7-amino-2-azabicyclo[2.2.1]heptane-2-carbonyl]-2-[1-(cyclopropylmethyl)-1H-pyrrolo[2,3-b]pyridin-2-yl]-7-methoxy-1H-1,3-benzodiazol-1-yl}methyl)azetidine-1-carbonyl]pyridine-2-carbonitrile]",276 nM
11,"COc1cc(C(=O)N2CC3CCC2[C@@H]3N)cc2nc(-c3csc4ccc(Cl)cc34)n(CC3CN(c4ccnc(C(N)=O)n4)C3)c12 (stereo partly drawn) [Example 320, 4-[3-({5-[(1R,4R,7R)-7-amino-2-azabicyclo[2.2.1]heptane-2-carbonyl]-2-(5-chloro-1-benzothiophen-3-yl)-7-methoxy-1H-1,3-benzodiazo1-1-yl}methyl)azetidin-1-yl]pyrimidine-2-carboxamide]",1350 nM

# More lines, in order of falling IC50, values ahead:
row,IC50,Structure (SMILES)
1,163 nM,"COc1cc(C(=O)N2CC3CCC2[C@@H]3N)cc2nc(-c3cc4ccccc4n3CC3CC3)n(Cc3cnn(C)n3)c12 (stereo partly drawn) [Example 505, (7R)-2-{2-[1-(cyclopropylmethyl)-1H-indol-2-yl]-7-methoxy-1-[(2-methyl-2H-1,2,3-triazol-4-yl)methyl]-1H-1,3-benzodiazole-5-carbonyl}-2-azabicyclo[2.2.1]heptan-7-amine]"
2,86 nM,"COc1cc(C(=O)N2CC3CCC2[C@@H]3N)cc2nc(-c3cc4cccnc4n3CC3CC3)n(Cc3cc(C)nn3C)c12 (stereo partly drawn) [Example 494, (7R)-2-{2-[1-(cyclopropylmethyl)-1H-pyrrolo[2,3-b]pyridin-2-yl]-1-[(1,3-dimethyl-1H-pyrazol-5-yl)methyl]-7-methoxy-1H-1,3-benzodiazole-5-carbonyl}-2-azabicyclo[2.2.1]heptan-7-amine]"
3,68 nM,"COc1ccc2cc(-c3nc4cc(C(=O)N5C[C@H]6CC[C@@H]5[C@@H]6N)cc(OC)c4n3CC3CN(c4ncncc4C#N)C3)n(CC3CC3)c2n1 [Example 24, 4-[3-({5-[(1R,4R,7R)-7-amino-2-azabicyclo[2.2.1]heptane-2-carbonyl]-2-[1-(cyclopropylmethyl)-6-methoxy-1H-pyrrolo[2,3-b]pyridin-2-yl]-7-methoxy-1H-1,3-benzodiazol-1-yl}methyl)azetidin-1-yl]pyrimidine-5-carbonitrile]"
4,59 nM,"C/C=C/C(=O)N1CC(Cn2c(-c3cc4cccnc4n3CC3CC3)nc3cc(C(=O)N4C[C@H]5CC[C@@H]4[C@@H]5N)cc(OC)c32)C1 [Example 116, (2E)-1-[3-({5-[(1R,4R,7R)-7-amino-2-azabicyclo[2.2.1]heptane-2-carbonyl]-2-[1-(cyclopropylmethyl)-1H-pyrrolo[2,3-b]pyridin-2-yl]-7-methoxy-1H-1,3-benzodiazol-1-yl}methyl)azetidin-1-yl]but-2-en-1-one]"
5,51 nM,"COc1cc(C(=O)N2CC3CCC2[C@@H]3N)cc2nc(-c3cc4ccccc4n3CC3CC3)n(Cc3cnn(-c4ccc[n+]([O-])c4)c3)c12 (stereo partly drawn) [Example 396, 3-[4-({5-[(7R)-7-amino-2-azabicyclo[2.2.1]heptane-2-carbonyl]-2-[1-(cyclopropylmethyl)-1H-indol-2-yl]-7-methoxy-1H-1,3-benzodiazol-1-yl}methyl)-1H-pyrazol-1-yl]pyridin-1-ium-1-olate]"
6,42 nM,"COc1cc(C(=O)N2C[C@H](N)C[C@@H](F)C2)cc2nc(-c3cc4cccnc4n3CC3CC3)n(Cc3cnn(-c4ccc(C#N)cn4)c3)c12 [Example 386, 6-[4-({5-[(3R,5R)-3-amino-5-fluoropiperidine-1-carbonyl]-2-[1-(cyclopropylmethyl)-1H-pyrrolo[2,3-b]pyridin-2-yl]-7-methoxy-1H-1,3-benzodiazol-1-yl}methyl)-1H-pyrazol-1-yl]pyridine-3-carbonitrile]"
7,41 nM,"COc1cc(C(=O)N2C[C@H]3CC[C@@H]2[C@@H]3N)cc2nc(-c3cc4ccccc4n3CC3CC3)n(CC3CN(C(=O)c4cccnc4)C3)c12 [Example 171, (1R,4R,7R)-2-{2-[1-(cyclopropylmethyl)-1H-indol-2-yl]-7-methoxy-1-{[1-(pyridine-3-carbonyl)azetidin-3-yl]methyl}-1H-1,3-benzodiazole-5-carbonyl}-2-azabicyclo[2.2.1]heptan-7-amine]"
8,19 nM,"COc1cc(C(=O)N2C[C@H]3CC[C@@H]2[C@@H]3N)cc2nc(-c3cc4ccccc4n3CC3CC3)n(CC3CN(C(=O)c4ccc(-c5ccc(O)cc5)cc4)C3)c12 [Example 149, 4′-[3-({5-[(1R,4R,7R)-7-amino-2-azabicyclo[2.2.1]heptane-2-carbonyl]-2-[1-(cyclopropylmethyl)-1H-indol-2-yl]-7-methoxy-1H-1,3-benzodiazol-1-yl}methyl)azetidine-1-carbonyl]-[1,1′-biphenyl]-4-ol]"
